Measurements as given in patent US7935724B2, “Thiophene and benzothiophene hydroxamic acid derivatives” (Merck HDAC Research, LLC, priority 2003, dated 2011).
Like-named read-outs stand apart in the source and are kept apart here.

Tests used:
[1] = molecular target: T1, histone deacetylase, subtype 1 (HDAC1) (Homo sapiens, UniProt Q13547); experiment: HDAC1-Flag assay (in vitro deacetylation assay); format: biochemical; conditions: concentration for 50% inhibition of deacetylation, substrate at Km, unit inferred, text gives nm, read-out: HDAC Inhibition
T1 construct: Flag; made in house
T1 sequence (Q13547 whole entry): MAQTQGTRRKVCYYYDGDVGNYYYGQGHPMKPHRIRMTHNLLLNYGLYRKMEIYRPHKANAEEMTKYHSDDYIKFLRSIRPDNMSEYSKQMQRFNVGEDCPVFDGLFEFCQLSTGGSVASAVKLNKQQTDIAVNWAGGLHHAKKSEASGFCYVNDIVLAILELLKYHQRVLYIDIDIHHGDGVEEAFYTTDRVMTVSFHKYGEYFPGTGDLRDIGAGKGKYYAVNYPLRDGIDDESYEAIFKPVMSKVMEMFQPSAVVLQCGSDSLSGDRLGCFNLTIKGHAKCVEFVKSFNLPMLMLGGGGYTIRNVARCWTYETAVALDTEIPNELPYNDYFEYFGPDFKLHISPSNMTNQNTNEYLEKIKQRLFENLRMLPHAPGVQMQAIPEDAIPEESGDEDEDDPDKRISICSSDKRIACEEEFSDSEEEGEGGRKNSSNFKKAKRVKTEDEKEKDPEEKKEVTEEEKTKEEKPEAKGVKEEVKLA
Experimental: Novel compounds were tested for their ability to inhibit histone deacetylase, subtype 1 (HDAC1) using an in vitro deacetylation assay. The enzyme source for this assay was an epitope-tagged human HDAC1 complex immuno-purified from stably expressing mammalian cells. The substrate consisted of a commercial product containing an acetylated lysine side chain (BIOMOL Research Laboratories, Inc., Plymouth Meeting, Pa.). Upon deacetylation of the substrate by incubation with the purified HDAC1 complex, a fluorophore is produced that is directly proportional to the level of deacetylation.

[2] = test system: murine erythroleukemia cell line SC9; experiment: MTS assay (Cell Titer 96 Aqueous One Solution Cell Proliferation Assay); format: cell-based; conditions: Mus musculus, SC9, 48 h, Table 3, concentration inhibiting proliferation of SC9 cells, unit inferred, unit nm
Experimental: The novel compounds of the present invention were tested for their ability to inhibit proliferation of the murine erythroleukemia cell line SC9.
The MTS assay, also referred to as the Cell Titer 96 Aqueous One Solution Cell Proliferation Assay, is a calorimetric method for determining the number of viable cells in proliferation, cytotoxicity or chemosensitivity assays. The MTS reagent contains a novel tetrazolium compound [3-(4,5-dimethylthiazol-2-yl)-5-(3-carboxymethoxyphenyl)-2-(4-sulfophenyl)-2H-tetrazolium, inner salt] and electron coupling reagent (phenazine ethosulfate;PES). Murine erythroleukemia cells (SC-9) were incubated with vehicle or increasing concentrations of compound for 48 hours. Cell proliferation was quantitated by adding a small amount of the MTS reagent directly to culture wells, incubating for 1-4 hours and then recording the absorbance at 490 nm with a 96-well plate reader. The quantity of formazan product, as measured by […] absorbance, is directly proportional to the number of living cells in culture.

[3] = Table 1, benzothiophene backbone

Row | SMILES | IC50 [1, 3] [nM] | IC50 [2] [nM] | IC50 ([1]; Table 2, thiophene backbone) [nM]
1 | COc1ccccc1CNCc1ccc2sc(C(=O)NO)cc2c1 [Compound 147] | 75.5 ± 7.7 | 201 ± 59.3 | –
2 | O=C(NO)c1cc2ccc(NC(=O)C3(c4ccc(Cl)cc4)CCC3)cc2s1 [Compound 127] | 115 ± 9.8 | 935 | –
3 | O=C(CN1CCN(c2ncccn2)CC1)Nc1ccc2cc(C(=O)NO)sc2c1 [Compound 101] | 59 ± 7 | 830 ± 393 | –
4 | O=C(NO)c1cc2cc(CNCCc3c[nH]c4ccccc34)ccc2s1 [Compound 145] | 151 ± 28.2 | 990 | –
5 | O=C(CN1CCC(Cc2ccccc2)CC1)Nc1ccc2cc(C(=O)NO)sc2c1 [Compound 90] | 99.5 ± 37.4 | 704 ± 96.1 | –
6 | COc1ccccc1N1CCN(CC(=O)Nc2ccc3cc(C(=O)NO)sc3c2)CC1 [Compound 107] | 79 ± 5.6 | 309 | –
7 | CCC(C(=O)Nc1ccc2sc(C(=O)NO)cc2c1)c1ccccc1 (stereo not shown) [Compound 86] | 92.5 ± 23.3 | 836 ± 28.9 | –
8 | O=C(NO)c1cc2ccc(NS(=O)(=O)c3cccc4ccccc34)cc2s1 [Compound 13] | 26 ± 1.4 | 441 | –
9 | O=C(CN1CCN(c2ccccn2)CC1)Nc1ccc2cc(C(=O)NO)sc2c1 [Compound 108] | 50 ± 11.3 | 442 | –
10 | O=C(NO)c1cc2cc(CNCCC(c3ccccc3)c3ccccc3)ccc2s1 [Compound 155] | 967 ± 215 | 390 | –
11 | COc1cccc(CNCc2ccc3cc(C(=O)NO)sc3c2)c1 [Compound 186] | 55.5 ± 9.1 | 93 | –
12 | O=C(NC1CCCc2ccccc21)c1ccc2cc(C(=O)NO)sc2c1 (stereo not shown) [Compound 135] | – | 836 | –
13 | COC(=O)c1ccc2cc(C(=O)NO)sc2c1 [Compound 23] | 627 ± 5.6 | – | –
14 | Cc1ccc(S(=O)(=O)Nc2ccc3sc(C(=O)NO)cc3c2)cc1 [Compound 44] | 162 ± 54.4 | – | –
15 | O=C(NO)c1ccc(-c2cccc(CN(CCCc3ccccc3)Cc3ccccc3)c2)s1 [Compound 76] | – | – | 1010
16 | O=C(NO)c1cc2ccc(C(=O)N3CCN(Cc4ccccc4)CC3)cc2s1 [Compound 191] | 453 ± 114 | – | –
17 | COc1ccc(CNC(=O)c2ccc3sc(C(=O)NO)cc3c2)cc1 [Compound 168] | 36 ± 1.4 | – | –
18 | O=C(NO)c1cc2ccc(NC(=O)C3(c4ccc(Cl)cc4)CC3)cc2s1 [Compound 125] | 164 ± 1.4 | – | –
19 | COc1ccc(CC(=O)Nc2ccc3sc(C(=O)NO)cc3c2)cc1 [Compound 96] | 83 ± 21.2 | – | –
20 | O=C(Nc1ccccc1)c1ccc2sc(C(=O)NO)cc2c1 [Compound 104] | 582 ± 9.8 | – | –
21 | O=C(NCCC(c1ccccc1)c1ccccc1)c1ccc2sc(C(=O)NO)cc2c1 [Compound 174] | 428 ± 102 | – | –
22 | O=C(NO)c1cc2ccccc2s1 [Compound 1] | 672 ± 98.9 | – | –

Row | SMILES | IC50 [1, 3] [nM] | IC50 [2] [nM] | IC50 ([1]; Table 2, thiophene backbone) [nM]
23 | O=C(NO)c1cc2ccc(COCc3ccccc3)cc2s1 [Compound 184] | 199 ± 35.3 | – | –
24 | O=C(NO)c1ccc(-c2cccc(CN(CCCc3ccccc3)Cc3cnc4ccccc4c3)c2)s1 [Compound 74] | – | – | 461
25 | O=C(NO)c1cc2cc(N(Cc3ccccc3)Cc3ccccc3)ccc2s1 [Compound 21] | 949 ± 834 | – | –
26 | O=C(NO)c1ccc(-c2cccc(CN(Cc3ccccc3)Cc3cnc4ccccc4c3)c2)s1 [Compound 70] | – | – | 399
27 | O=C(NCCc1ccccc1)c1ccc2cc(C(=O)NO)sc2c1 [Compound 161] | 58 | – | –
28 | O=C(NCCCc1ccccc1)c1ccc2cc(C(=O)NO)sc2c1 [Compound 160] | 90 ± 11.3 | – | –
29 | O=C(Nc1ccc2cc(C(=O)NO)sc2c1)OCc1ccccc1 [Compound 30] | 113 ± 33.2 | – | –
30 | O=C(CN1CCOCC1)Nc1ccc2cc(C(=O)NO)sc2c1 [Compound 116] | 84 ± 5.6 | – | –
31 | O=C(NCCCCc1ccccc1)c1ccc2sc(C(=O)NO)cc2c1 [Compound 175] | 154 ± 8.4 | – | –
32 | COC(=O)c1ccc2sc(C(=O)NO)cc2c1 [Compound 45] | 737 ± 143 | – | –
33 | O=C(Cc1ccc(Cl)cc1)Nc1ccc2sc(C(=O)NO)cc2c1 [Compound 95] | 79.5 ± 33.2 | – | –
34 | O=C(NO)c1cc2cc(CNCCc3ccc(OCc4ccccc4)c(OCc4ccccc4)c3)ccc2s1 [Compound 144] | 1580 ± 334 | – | –
35 | CCOC(=O)N1CCN(CC(=O)Nc2ccc3cc(C(=O)NO)sc3c2)CC1 [Compound 122] | 163 ± 35.2 | – | –
36 | O=C(/C=C/c1ccc(C(=O)NO)s1)NCCc1ccccc1 [Compound 65] | – | – | 41
37 | O=C(CCc1ccc(C(=O)NO)s1)NCC1CCCCC1 [Compound 196] | – | – | 1450 ± 111
38 | O=C(NCc1ccccn1)c1ccc2cc(C(=O)NO)sc2c1 [Compound 94] | 85.7 ± 23.5 | – | –
39 | O=C(NO)c1cc2cc(C(F)(F)F)ccc2s1 [Compound 2] | 609 ± 24.7 | – | –
40 | O=C(Nc1cccc2cccnc12)c1ccc2cc(C(=O)NO)sc2c1 [Compound 182] | 1070 ± 21.9 | – | –
41 | COc1cccc(-c2ccc(C(=O)NO)s2)c1 [Compound 55] | – | – | 444 ± 54.4
42 | COc1ccc(CC(=O)Nc2ccc3cc(C(=O)NO)sc3c2)cc1OC [Compound 49] | 35 | – | –
43 | O=C(NO)c1cc2ccc(C(=O)N3CCC(Cc4ccccc4)CC3)cc2s1 [Compound 190] | 170 ± 38.8 | – | –
44 | O=C(Nc1ccccc1)c1ccc2cc(C(=O)NO)sc2c1 [Compound 137] | 615 ± 207 | – | –

Row | SMILES | IC50 [1, 3] [nM] | IC50 [2] [nM] | IC50 ([1]; Table 2, thiophene backbone) [nM]
45 | O=C(CN(CC(=O)Nc1ccccc1)C(=O)c1ccc2sc(C(=O)NO)cc2c1)Nc1ccccc1 [Compound 179] | 102 ± 26.2 | – | –
46 | O=C(NCc1ccccc1)Nc1ccc2cc(C(=O)NO)sc2c1 [Compound 7] | 52 ± 19.7 | – | –
47 | O=C(NO)c1cc2cc(NS(=O)(=O)Cc3ccccc3)ccc2s1 [Compound 19] | 119 ± 21.9 | – | –
48 | COc1ccc(OC)c(CC(=O)Nc2ccc3sc(C(=O)NO)cc3c2)c1 [Compound 87] | 111 ± 23.3 | – | –
49 | O=C(NO)c1ccc(-c2cccc(CN(Cc3ccccc3)Cc3ccnc4ccccc34)c2)s1 [Compound 71] | – | – | 461
50 | O=C(NO)c1cc2cc(NS(=O)(=O)c3ccc4ccccc4c3)ccc2s1 [Compound 17] | 52.5 ± 10.6 | – | –
51 | O=C(CCc1ccc(C(=O)NO)s1)Nc1cccc(OCc2ccccc2)c1 [Compound 195] | – | – | 127 ± 11.3
52 | CC(C)C(=O)Nc1ccc2cc(C(=O)NO)sc2c1 [Compound 9] | 156 ± 33.2 | – | –
53 | O=C(NCCc1cc2ccccc2[nH]1)c1ccc2cc(C(=O)NO)sc2c1 [Compound 128] | 144 ± 63.7 | – | –
54 | O=C(NCc1ccccc1)c1ccc2cc(C(=O)NO)sc2c1 [Compound 92] | 53 ± 7 | – | –
55 | O=C(NO)c1ccc(-c2cccc(CN(CCc3ccccc3)Cc3ccccc3)c2)s1 [Compound 62] | – | – | 933 ± 22.6
56 | COc1ccc(CN(Cc2ccc3cc(C(=O)NO)sc3c2)C2CCOCC2)cc1 [Compound 194] | 76 | – | –
57 | COc1cccc(CC(=O)Nc2ccc3sc(C(=O)NO)cc3c2)c1 [Compound 53] | 54 | – | –
58 | O=C(NO)c1cc2cc(NS(=O)(=O)c3ccc(-c4ccccc4)cc3)ccc2s1 [Compound 18] | 91 ± 49.4 | – | –
59 | O=C(NCc1ccccc1)c1ccc(-c2ccc(C(=O)NO)s2)cc1 [Compound 60] | – | – | 464 ± 65
60 | O=C(Cc1cccc(F)c1)Nc1ccc2cc(C(=O)NO)sc2c1 [Compound 50] | 14 | – | –
61 | O=C(CCc1ccc(C(=O)NO)s1)Nc1ccccc1 [Compound 80] | – | – | 481
62 | O=C(NO)c1ccc(-c2cccc(CN(Cc3ccccc3)Cc3ccccc3)c2)s1 [Compound 61] | – | – | 1000
63 | COc1ccc(CC(=O)Nc2ccc3sc(C(=O)NO)cc3c2)cc1OC [Compound 85] | 76 ± 15.5 | – | –
64 | COc1ccc(N2CCN(CC(=O)Nc3ccc4cc(C(=O)NO)sc4c3)CC2)cc1 [Compound 124] | 177 ± 16 | – | –
65 | O=C(NO)c1cc2cc(N(Cc3ccccc3)Cc3ccccc3)ccc2s1 [Compound 20] | 1650 ± 1160 | – | –
